Assay results reported in the NIST ThermoML archive (doi:10.1016/j.jct.2009.04.006).
Numbers after ± are expanded uncertainties.

How the values were obtained:
[1] = Liquid; for mass density: 101.33 kPa, Pycnometric method; for vapor or sublimation pressure: Isoteniscope
[2] = refractive index (Na D-line) (dimensionless); settings: 298.15 K; 101.33 kPa; Liquid; Standard Abbe refractometry

Structure (SMILES): CC(Cl)(Cl)Cl [1,1,1-trichloroethane]
- mass density ([1]; 298.15 K): 1328.7 ± 0.6 kg/m3
- vapor or sublimation pressure ([1]; 298.15 K): 16.64 ± 0.19 kPa
- vapor or sublimation pressure ([1]; 308.15 K): 25.85 ± 0.22 kPa
- vapor or sublimation pressure ([1]; 318.15 K): 37.61 ± 0.25 kPa
- refractive index [2]: 1.4354 ± 0.0004

Structure (SMILES): CCCCCl [1-chlorobutane]
- mass density ([1]; 298.15 K): 880.9 ± 0.4 kg/m3
- vapor or sublimation pressure ([1]; 298.15 K): 13.72 ± 0.15 kPa
- vapor or sublimation pressure ([1]; 308.15 K): 20.66 ± 0.19 kPa
- vapor or sublimation pressure ([1]; 318.15 K): 31.46 ± 0.23 kPa
- refractive index [2]: 1.3991 ± 0.0004

Structure (SMILES): O=C1CCCCC1 [cyclohexanone]
- mass density ([1]; 298.15 K): 943 ± 0.4 kg/m3
- vapor or sublimation pressure ([1]; 298.15 K): 0.64 ± 0.05 kPa
- vapor or sublimation pressure ([1]; 308.15 K): 1.16 ± 0.06 kPa
- vapor or sublimation pressure ([1]; 318.15 K): 1.92 ± 0.06 kPa
- refractive index [2]: 1.4482 ± 0.0004
